Columns and labels:
glucagon receptor (GCGR) = target: T1, glucagon receptor (GCGR) (Homo sapiens, UniProt P47871); experiment: I125-glucagon binding assay (competition, GCGR membrane fractions)
T1 construct: expressed in transfected cells; host or cells: CHO-K1 cells overexpressing GCGR (membrane fractions)
How it was run: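 Competition of 0.0625 nM (final) I^125-glucagon for 30 min at 25° C, after 5 min compound preincubation, using 7.5 μg/well GCGR-overexpressing CHO-K1 membranes in 50 mM Tris pH 7.4, 0.5% BSA. Filtration onto PEI-coated GF/B, micro-beta counting, and non-linear regression gave IC50.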

[1] = target: T2, glucagon receptor (GCGR) overexpressed CHO-K1 cells or human primary hepatocytes (Homo sapiens, UniProt P47871); experiment: Glucagon cAMP inhibition assay (Cisbio cAMP Dynamic 2 HTRF); type: cell-based; conditions: inhibition of glucagon (EC50 concentration) induced cAMP production
T2 construct: expressed in transfected cells; host or cells: GCGR overexpressed CHO-K1 cells or human primary hepatocytes (endogenous receptor)
T2 sequence (P47871 26-477): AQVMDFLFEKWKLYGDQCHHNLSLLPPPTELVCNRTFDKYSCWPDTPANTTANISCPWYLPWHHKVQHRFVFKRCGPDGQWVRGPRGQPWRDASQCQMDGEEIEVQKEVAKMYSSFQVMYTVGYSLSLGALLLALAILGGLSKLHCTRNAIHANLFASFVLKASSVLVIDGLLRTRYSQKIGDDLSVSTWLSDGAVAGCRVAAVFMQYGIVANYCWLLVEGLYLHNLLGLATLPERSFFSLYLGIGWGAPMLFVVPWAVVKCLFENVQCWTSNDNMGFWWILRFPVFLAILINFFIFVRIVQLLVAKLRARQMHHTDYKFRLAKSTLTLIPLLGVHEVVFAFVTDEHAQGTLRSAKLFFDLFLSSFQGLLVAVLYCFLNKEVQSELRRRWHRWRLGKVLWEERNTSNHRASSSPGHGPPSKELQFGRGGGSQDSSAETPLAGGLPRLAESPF
How it was run: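 HTRF read-out of glucagon-induced cAMP, with IC50 from non-linear regression. Cells (GCGR CHO-K1 or human primary hepatocytes) in HBSS/0.1% BSA/800 nM IBMX took compound dilutions for 30 min (final DMSO 1%), then EC50-level glucagon for 30 min at room temperature, then a 60 min lysis/detection step.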

[2] = competition with I125-glucagon 0.0625 nM, membrane fractions of GCGR overexpressed CHO-K1 cells

T1 sequence (P47871 26-477): as above

Compound | IC50 (glucagon receptor (GCGR); [2]) | IC50 cAMP [1] | inhibition at 30 µM (glucagon receptor (GCGR); compound at the concentration of 30 μM, read-out: percentage of inhibition (binding)) | IC50 (glucagon receptor (GCGR); cell prints its own unit uM under a nM head)
CC[C@H](C)[C@@H](COc1ccc(-c2nnc(-c3ccccc3)o2)cc1)Nc1ccc(C(=O)NCCC(=O)O)cc1 [Compound 1-46, 3-(4-(((2S,3S)-3-methyl-1-(4-(5-phenyl-1,3,4-oxadiazol-2-yl)phenoxy)pentan-2-yl)amino)benzamido)propanoic Acid] | 0.601 µM | 5441 nM | – | –
CCOC(=O)CCNC(=O)c1ccc(N[C@H](COc2ccc(-c3nc4ccccc4o3)cc2)C(C)C)cc1 [Compound 1-47, Ethyl (S)-3-(4-((1-(4-(benzo[d]oxazol-2-yl)phenoxy)-3-methylbutan-2-yl)amino)benzamido)propanoate] | > 30 µM | 170 nM | 56% | –
CC(C)[C@@H](COc1ccc(-c2nc3ccccc3o2)cc1)Nc1ccc(C(=O)NCCC(=O)O)cc1 [Compound 1-48, (S)-3-(4-((1-(4-(benzo[d]oxazol-2-yl)phenoxy)-3-methylbutan-2-yl)amino)benzamido)propanoic Acid] | 0.138 µM | 546 nM | – | –
CCCC[C@@H](COc1ccc(-c2nnc(C(C)(C)C)o2)cc1)Nc1ccc(C(=O)NCCC(=O)O)cc1 [Compound 1-49, (S)-3-(4-((1-(4-(5-(tert-butyl)-1,3,4-oxadiazol-2-yl)phenoxy)hexan-2-yl)amino)benzamido)propanoic Acid] | 7.2 µM | 7065 nM | – | –
CCCC[C@@H](COc1ccc(-c2nnc(-c3ccccc3)o2)cc1)Nc1ccc(C(=O)NCCC(=O)O)cc1 [Compound 1-50, (S)-3-(4-((1-(4-(5-phenyl-1,3,4-oxadiazol-2-yl)phenoxy)hexan-2-yl)amino)benzamido)propanoic Acid] | 0.715 µM | 1622 nM | – | –
CCOC(=O)CCNC(=O)c1ccc(N[C@@H](COc2ccc(-c3nc4ccccc4s3)cc2)C(C)C)cc1 [Compound 1-51, Ethyl (R)-3-(4-((1-(4-(benzo[d]thiazol-2-yl)phenoxy)-3-methylbutan-2-yl)amino)benzamido)propanoate] | – | 197 nM | – | > 30 µM
CC(C)[C@H](COc1ccc(-c2nc3ccccc3s2)cc1)Nc1ccc(C(=O)NCCC(=O)O)cc1 [Compound 1-52, (R)-3-(4-((1-(4-(benzo[d]thiazol-2-yl)phenoxy)-3-methylbutan-2-yl)amino)benzamido)propanoic Acid] | 0.089 µM | 377 nM | – | –
CCOC(=O)CCNC(=O)c1ccc(N[C@@H](COc2ccc(-c3nc4ccccc4o3)cc2)C(C)C)cc1 [Compound 1-53] | 24.5 µM | 90 nM | – | –
CC(C)[C@H](COc1ccc(-c2nc3ccccc3o2)cc1)Nc1ccc(C(=O)NCCC(=O)O)cc1 [Compound 1-54, (R)-3-(4-((1-(4-(benzo[d]oxazol-2-yl)phenoxy)-3-methylbutan-2-yl)amino)benzamido)propanoic Acid] | 0.095 µM | 213 nM | – | –
Cc1cc(OC[C@@H](Cc2ccccc2)Nc2ccc(C(=O)NCCC(=O)O)cc2)cc(C)c1-c1ccc(C(F)(F)F)cc1 [Compound 2-1, (R)-3-(4-((1-((2,6-dimethyl-4′-(trifluoromethyl)-[1,1′-biphenyl]-4-yl)oxy)-3-phenylpropan-2-yl)amino)benzamido)propanoic Acid] | 0.266 µM | 322.9 nM | – | –
Cc1cc(OC[C@@H](Cc2ccccc2)Nc2ccc(C(=O)NCCC(=O)O)cc2)cc(C)c1-c1ccc(OC(F)(F)F)cc1 [Compound 2-2] | 0.378 µM | 474.8 nM | – | –
Cc1cc(OC[C@H](CC(C)C)Nc2ccc(C(=O)NCCC(=O)O)cc2)cc(C)c1-c1ccc(OC(F)(F)F)cc1 [Compound 2-3, (S)-3-(4-((1-((2,6-dimethyl-4′-(trifluoromethoxy)-[1,1′-biphenyl]-4-yl)oxy)-4-methylpentan-2-yl)amino)benzamido)propanoic Acid] | 0.465 µM | 493 nM | – | –
Cc1cc(OC[C@@H](Nc2ccc(C(=O)NCCC(=O)O)cc2)C(C)C)cc(C)c1-c1ccc(C(F)(F)F)cc1 [Compound 2-4, (S)-3-(4-((1-((2,6-dimethyl-4′-(trifluoromethyl)-[1,1′-biphenyl]-4-yl)oxy)-3-methylbutan-2-yl)amino)benzamido)propanoic Acid] | 0.091 µM | 245.8 nM | – | –
Cc1cc(OC[C@@H](Nc2ccc(C(=O)NCCC(=O)O)cc2)C(C)C)cc(C)c1-c1ccc(C(C)(C)C)cc1 [Compound 2-5, (S)-3-(4-((1-((4′-(tert-butyl)-2,6-dimethyl-[1,1′-biphenyl]-4-yl)oxy)-3-methylbutan-2-yl)amino)benzamido)propanoic Acid] | 0.347 µM | 352 nM | – | –
CC[C@H](C)[C@@H](COc1cc(C)c(-c2ccc(C(C)(C)C)cc2)c(C)c1)Nc1ccc(C(=O)NCCC(=O)O)cc1 [Compound 2-6, 3-(4-(((2S,3S)-1-((4′-(tert-butyl)-2,6-dimethyl-[1,1′-biphenyl]-4-yl)oxy)-3-methylpentan-2-yl)amino)benzamido)propanoic Acid] | 0.067 µM | 448 nM | – | –
CC[C@H](C)[C@@H](COc1cc(C)c(-c2cc3ccccc3o2)c(C)c1)Nc1ccc(C(=O)NCCC(=O)O)cc1 [Compound 2-7, 3-(4-(((2S,3S)-1-(4-(benzofuran-2-yl)-3,5-dimethylphenoxy)-3-methylpentan-2-yl)amino)benzamido)propanoic Acid] | 0.158 µM | 468 nM | – | –
CC[C@H](C)[C@@H](COc1cc(C)c(-c2ccc(OC(F)(F)F)cc2)c(C)c1)Nc1ccc(C(=O)NCCC(=O)O)cc1 [Compound 2-8, 3-(4-(((2S,3S)-1-((2,6-dimethyl-4′-(trifluoromethoxy)-[1,1′-biphenyl]-4-yl)oxy)-3-methylpentan-2-yl)amino)benzamido)propanoic Acid] | 0.627 µM | 602 nM | – | –
CC[C@H](C)[C@@H](COc1cc(C)c(-c2ccc(Cl)cc2Cl)c(C)c1)Nc1ccc(C(=O)NCCC(=O)O)cc1 [Compound 2-9, 3-(4-(((2S,3S)-1-((2′,4′-dichloro-2,6-dimethyl-[1,1′-biphenyl]-4-yl)oxy)-3-methylpentan-2-yl)amino)benzamido)propanoic Acid] | 0.06 µM | 447.6 nM | – | –
CC[C@H](C)[C@@H](COc1cc(C)c(-c2ccc(C(F)(F)F)cc2)c(C)c1)Nc1ccc(C(=O)NCCC(=O)O)cc1 [Compound 2-10, 3-(4-(((2S,3S)-1-((2,6-dimethyl-4′-(trifluoromethyl)-[1,1′-biphenyl]-4-yl)oxy)-3-methylpentan-2-yl)amino)benzamido)propanoic Acid] | 0.09 µM | 241.4 nM | – | –
Cc1cc(OC[C@@H](Nc2ccc(C(=O)NCCC(=O)O)cc2)C(C)C)cc(C)c1-c1ccc(C(F)(F)F)cc1Cl [Compound 2-11, (S)-3-(4-((1-((2′-chloro-2,6-dimethyl-4′-(trifluoromethyl)-[1,1′-biphenyl]-4-yl)oxy)-3-methylbutan-2-yl)amino)benzamido)propanoic Acid] | 0.872 µM | 277.2 nM | – | –
CCCC[C@@H](COc1cc(C)c(-c2cc3ccccc3o2)c(C)c1)Nc1ccc(C(=O)NCCC(=O)O)cc1 [Compound 2-12, (S)-3-(4-((1-(4-(benzofuran-2-yl)-3,5-dimethylphenoxy)hexan-2-yl)amino)benzamido)propanoic Acid] | 0.108 µM | 62.8 nM | – | –
CCCC[C@@H](COc1cc(C)c(-c2cc3ccccc3o2)c(C)c1)Nc1ccc(C(=O)NCc2nnn[nH]2)cc1 [Compound 2-13, (S)—N-((1H-tetrazol-5-yl)methyl)-4-((1-(4-(benzofuran-2-yl)-3,5-dimethylphenoxy)hexan-2-yl)amino)benzamide] | 0.167 µM | 148.5 nM | – | –
CC[C@H](C)[C@@H](COc1ccc(-c2cc3ccccc3o2)c(Cl)c1)Nc1ccc(C(=O)NCc2nnn[nH]2)cc1 [Compound 3-1, N-((1H-tetrazol-5-yl)methyl)-4-(((2S,3S)-1-(4-(benzofuran-2-yl)-3-chlorophenoxy)-3-methylpentan-2-yl)amino)benzamide] | 0.217 µM | 1822 nM | – | –
CC(C)[C@@H](COc1ccc(-c2ccc(C(F)(F)F)cc2Cl)c(Cl)c1)Nc1ccc(C(=O)NC[C@@H](O)C(=O)O)cc1 [Compound 3-2, (R)-3-(4-(((S)-1-((2,2′-dichloro-4′-(trifluoromethyl)-[1,1′-biphenyl]-4-yl)oxy)-3-methylbutan-2-yl)amino)benzamido)-2-hydroxypropanoic Acid] | 0.135 µM | >10000 nM | – | –
CC(C)[C@@H](COc1ccc(-c2ccc(C(F)(F)F)cc2Cl)c(Cl)c1)Nc1ccc(C(=O)NCc2nnn[nH]2)cc1 [Compound 3-3, (S)—N-((1H-tetrazol-5-yl)methyl)-4-((1-((2,2′-dichloro-4′-(trifluoromethyl)-[1,1′-biphenyl]-4-yl)oxy)-3-methylbutan-2-yl)amino)benzamide] | 0.086 µM | 1250 nM | – | –
CC(C)[C@@H](COc1ccc(-c2ccc(C(F)(F)F)cc2Cl)c(Cl)c1)Nc1ccc(C(=O)NCCC(=O)O)cc1 [Compound 3-4, (S)-3-(4-((1-((2,2′-dichloro-4′-(trifluoromethyl)-[1,1′-biphenyl]-4-yl)oxy)-3-methylbutan-2-yl)amino)benzamido)propanoic Acid] | 0.017 µM | 313.6 nM | – | –

Reference: patent US11384060B2, “Amide compounds and use thereof” (ALPHALA CO., LTD., priority 2017, dated 2022)
